Each block holds one compound with its values, some of them ahead of it.
Legend:
5-Lipoxygenase = 5-Lipoxygenase inhibitory activity (colorimetric, ferric xylenol orange); type: biochemical
Procedure: 5-Lipoxygenase activity: The enriched fraction of tetrahydroxycurcumin mixture, pure TC and tetrahydrotetrahydroxycurcumin fraction were screened for their 5-Lipoxygenase inhibitory potential using colorimetric method. The assay mixture contained 50 mM phosphate buffer pH 6.3, 5-Lipoxygenase, various concentrations of test substances in dimethyl sulphoxide and linoleic acid in a total volume of 0.5 mL, after 5 min incubation of above reaction mixture, 0.5 mL ferric xylenol orange reagent was added and OD was measured after two minutes at 585 nm using spectrophotometer. […] Percent inhibition was calculated by comparing absorbance of test solution with that of control.

[1] = tested on: carrageenin induced paw edema; assay: Anti-inflammatory activity (carragenin induced paw edema method); type: in vivo, Albino wistar rats; conditions: at 25 mg concentration, oral, paw volume 3 h after carrageenin
Procedure: The invention also describes use of enriched tetrahydroxycurcumin fraction containing 70-100% of TC for treating anti-inflammatory conditions.
Anti-inflammatory activity (Carragenin induced paw edema method): Prior to the experiment all the animals (Albino wistar rats of either sex weighing between 180-300 g) fasted at ad libitum water and were weighed, numbered and randomly divided into groups, each containing 3 animals. Initial paw volumes were measured using plethesmometer and noted. All the groups were treated with corresponding test substance orally using gastric tube. Control group was treated with 10 mL/Kg vehicle (0.5%, carboxymethyl cellulose sodium salt). After 30 minutes, all the animals were injected subcutaneously at subplantar region of left hind paw 1% carrageenin 0.1 mL using hypodermic needle. All the animals were administered water 20 mL/Kg body weight and kept devoid of water for 3 h (maintained uniform hydration). After 3 h, paw volumes of all the animals were measured twice and average volume from two measurements were recorded. The % of inhibition of paw edema was calculated by comparing paw edema of test substance treated groups with that of control groups.

Compound: CC(Cc1ccc(O)c(O)c1)C(C)Cc1ccc(O)c(O)c1 (centres unmarked) [NDGA, Nordihydroguaiaretic acid]
% of inhibition (5-Lipoxygenase) (5-Lipoxygenase; concentration 24 μg/mL): 60%

melting point: 302 to 304 °C
% of inhibition (5-Lipoxygenase) (5-Lipoxygenase; concentration 16 μg/mL): 60%
Compound: O=C(/C=C/c1ccc(O)c(O)c1)CC(=O)/C=C/c1ccc(O)c(O)c1 [Pure tetrahydroxycurcumin (TC), 1,7-Bis(3,4-dihydroxyphenyl)-1,6-heptadiene-3,5-dione]

Compound: O=C(O)Cc1ccccc1Nc1c(Cl)cccc1Cl [diclofenac sodium]
% inhibition of paw edema [1]: 63.10%

% of inhibition (5-Lipoxygenase) (5-Lipoxygenase; concentration 41 μg/mL): 55%
Compound: Acetyl-keto-boswellic acid [AKBA]
